Experimental data from the supplement of paper PMC10307832.

Key:
Assay in all cases: relative viability (nuclei count vs DMSO), 5 days (fraction); higher = more cells survive
[1] = compound: CCc1c2c(nc3ccc(OC(=O)N4CCC(N5CCCCC5)CC4)cc13)-c1cc3c(c(=O)n1C2)COC(=O)[C@]3(O)CC [Irinotecan] + CC(=O)c1c(C)c2cnc(Nc3ccc(N4CCNCC4)cn3)nc2n(C2CCCC2)c1=O [Palbociclib] (partner 0.5 µM)
How it was run: (§1)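 Relative viability is defined as nuclei in treated wells over nuclei in vehicle wells. Duplicate plates were run and medians reported. Lung cancer cell lines in 1536-well plates were dosed by pin tool one day after seeding, with one drug or with a fixed anchor-drug dose plus five library-drug doses (not always all listed) in √10 steps, and nuclei were counted after 5 days.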

[2] = compound: CC[C@@H](C)CNCC(=O)N1CCC2=C([C@@H]1COC3=CC=CC(=C3)C)C=CS2 [RU-SKI 43] + C[C@@H](Oc1cc(-c2cnn(C3CCNCC3)c2)cnc1N)c1c(Cl)ccc(F)c1Cl [Crizotinib] (partner 1 µM)
How it was run: as §1

[3] = compound: Cn1cc(-c2cnc3ccc4ccc(CS(=O)(=O)NCc5ccccn5)cc4c(=O)c3c2)cn1 [MK-8033] + O=C(CCCCCCC(=O)Nc1ccccc1)NO [Vorinostat] (partner 1 µM)
How it was run: as §1

| Cell Line | relative viability ([1]; first compound 0.6325 µM) | relative viability ([1]; first compound 2 µM) | relative viability ([1]; first compound 6.325 µM) | relative viability ([1]; first compound 20 µM) | relative viability ([2]; first compound 0.1 µM) | relative viability ([2]; first compound 0.3162 µM) | relative viability ([2]; first compound 1 µM) | relative viability ([2]; first compound 3.162 µM) | relative viability ([2]; first compound 10 µM) | relative viability ([3]; first compound 0.02 µM) | relative viability ([3]; first compound 0.06325 µM) | relative viability ([3]; first compound 0.2 µM) | relative viability ([3]; first compound 0.6325 µM) | relative viability ([3]; first compound 2 µM) |
| --- | --- | --- | --- | --- | --- | --- | --- | --- | --- | --- | --- | --- | --- | --- |
| HCC-78 | 0.474 | 0.363 | 0.37 | 0.347 | 0.334 | 0.305 | 0.35 | 0.353 | 0.302 | 0.401 | 0.399 | 0.539 | 0.262 | 0.455 |
| NCI-H441 | 0.207 | 0.211 | 0.218 | 0.175 | 0.662 | 0.655 | 0.637 | 0.686 | 0.641 | 0.795 | 0.738 | 0.823 | 0.706 | 0.732 |
| NCI-H1299 | – | – | – | – | 0.947 | 1.12 | 0.995 | 1.01 | 0.957 | – | – | – | – | – |
| LU99A | 0.173 | 0.179 | 0.153 | 0.172 | 0.542 | 0.565 | 0.595 | 0.6 | 0.469 | 0.511 | 0.495 | 0.565 | 0.53 | 0.433 |
| NCI-H1651 | 0.529 | 0.491 | 0.305 | 0.162 | 0.886 | 0.971 | 0.891 | 0.887 | 0.865 | 0.665 | 0.484 | 0.593 | 0.597 | 0.633 |
| HARA | 0.26 | 0.184 | 0.225 | 0.232 | 1.16 | 0.971 | 1.08 | 1.18 | 0.975 | 0.549 | – | 0.553 | 0.521 | 0.542 |
| RERF-LC-KJ | 1.02 | 0.819 | 0.405 | 0.265 | 0.904 | 0.86 | 0.772 | 0.862 | 0.77 | 0.726 | 0.599 | 0.664 | 0.707 | 0.597 |
| LCLC-103H | 0.452 | 0.412 | 0.446 | 0.5 | 1.08 | 1.12 | 1.08 | 1.09 | 0.926 | 0.767 | 0.719 | 0.753 | 0.704 | 0.807 |
| SK-LU-1 | 0.35 | 0.354 | 0.299 | 0.336 | 0.799 | 1.02 | 0.969 | 0.971 | 0.898 | 0.829 | 0.897 | 0.704 | 0.778 | 0.685 |
| Calu-6 | – | – | – | – | 0.781 | 0.871 | 0.936 | 0.726 | 0.594 | – | – | – | – | – |
| NCI-H1648 | 0.254 | 0.303 | 0.346 | 0.355 | – | – | – | – | – | 0.591 | – | 0.3 | 0.718 | 0.629 |
| NCI-H522 | 0.872 | 0.585 | 0.413 | 0.475 | – | – | – | – | – | 0.796 | 0.741 | 0.829 | 0.895 | 0.942 |
| LOU-NH91 | 0.509 | 0.494 | 0.418 | 0.263 | 0.795 | 0.818 | 0.719 | 0.754 | 0.715 | 0.923 | 0.638 | 0.835 | 0.86 | 0.92 |
| HCC-366 | 0.228 | 0.18 | 0.0611 | 0.0667 | 0.454 | 0.392 | 0.548 | 0.486 | 0.27 | 0.392 | 0.313 | 0.253 | 0.329 | 0.324 |
| CAL-12T | 0.316 | 0.344 | 0.251 | 0.197 | 0.494 | 0.747 | 0.652 | 0.896 | 0.653 | 0.797 | 0.709 | 0.81 | 0.775 | 0.673 |
| PC-3 [JPC-3] | 0.566 | 0.557 | 0.529 | 0.338 | 0.918 | 1.14 | 0.998 | 0.922 | 0.963 | 0.886 | – | 0.77 | 0.924 | 0.817 |
| NCI-H2087 | 0.192 | 0.219 | 0.174 | 0.204 | 0.837 | 1.12 | 0.915 | 0.783 | 0.733 | 0.788 | 0.368 | 0.749 | 0.728 | 0.692 |
| NCI-H1395 | – | 0.572 | 0.476 | 0.284 | – | – | – | – | – | 0.673 | 0.673 | 0.638 | 0.654 | 0.692 |
| ABC-1 | – | 0.628 | 0.506 | 0.358 | 0.993 | 1.21 | 1.26 | 0.939 | 0.563 | 1.24 | 0.931 | 0.928 | 1.04 | 0.975 |
| NCI-H2023 | 0.503 | 0.385 | 0.248 | 0.077 | 0.623 | 0.685 | 0.602 | 0.58 | 0.428 | 0.857 | 0.44 | 0.583 | 0.515 | 0.491 |
| PC-14 | 0.378 | 0.34 | 0.183 | 0.148 | 0.827 | 0.891 | 0.92 | 0.804 | 0.749 | 0.708 | 0.52 | 0.683 | 0.797 | 0.599 |
| ChaGo-K-1 | 0.256 | 0.247 | 0.22 | 0.203 | 1.15 | 1.27 | 1.26 | 1.17 | 0.951 | 0.769 | 0.74 | 0.729 | 0.685 | 0.687 |
| NCI-H650 | 0.188 | 0.195 | 0.19 | 0.257 | 0.76 | 0.622 | 0.694 | – | 0.619 | 0.512 | 0.5 | 0.496 | 0.428 | 0.371 |
| EBC-1 | – | – | – | – | 0.19 | 0.183 | 0.202 | 0.176 | 0.155 | – | – | – | – | – |
| NCI-H2228 | 0.453 | 0.664 | 0.393 | 0.456 | 0.498 | 0.416 | 0.448 | 0.579 | 0.306 | 0.594 | 0.562 | 0.417 | 0.696 | 0.821 |
| NCI-H1703 | – | – | – | – | – | 0.734 | 0.61 | 0.594 | 0.381 | – | – | – | – | – |
| 201T | 0.403 | 0.343 | 0.265 | 0.22 | 1.02 | 0.991 | 1.06 | 1.06 | 0.992 | 0.956 | 0.926 | 0.791 | 0.949 | 0.962 |
